Results from PubChem BioAssay AID330 (DTP/NCI, 2004).
Where “and” joins values, the source holds several entries; their conditions need not be identical. Equal values may be shown once. Toxic doses and inconclusive results are not listed. The calls were made as follows: active = survival T/C of 150% or more; inactive = T/C below 125% in these data.

Test system: P388 leukemia ip, CD2F1 mice, survival T/C
Assay: NCI In Vivo Anticancer Drug Screen. Data for tumor model P388 Leukemia (intraperitoneal) in CD2F1 (CDF1) mice
Conditions: endpoint: median survival time, higher = longer survival
Outline: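 Mice carrying the transplanted tumor received test compound or vehicle. Survival was recorded in each group, and the value is the treated-group measurement divided by that of the vehicle-treated control group.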

[1] = dose: 25.0 mg/kg/injection, schedule: Q01DX009 (ip), vehicle: saline with Tween-80
[2] = dose: 50.0 mg/kg/injection, schedule: Q01DX009 (ip), vehicle: saline with Tween-80
[3] = dose: 60.0 mg/kg/injection, schedule: Q01DX005 (ip), vehicle: saline with Tween-80
[4] = dose: 50.0 mg/kg/injection, schedule: Q01DX005 (ip), vehicle: Klucel (hydroxypropylcellulose) (HPC)
[5] = dose: 100.0 mg/kg/injection, schedule: Q01DX005 (ip), vehicle: Klucel (hydroxypropylcellulose) (HPC)
[6] = dose: 200.0 mg/kg/injection, schedule: Q01DX005 (ip), vehicle: Klucel (hydroxypropylcellulose) (HPC)
[7] = dose: 100.0 mg/kg/injection, schedule: Q01DX009 (ip), vehicle: saline with Tween-80
[8] = dose: 200.0 mg/kg/injection, schedule: Q01DX009 (ip), vehicle: saline with Tween-80
[9] = dose: 50.0 mg/kg/injection, schedule: Q01DX009 (ip), vehicle: Klucel (hydroxypropylcellulose) (HPC)
[10] = dose: 100.0 mg/kg/injection, schedule: Q01DX009 (ip), vehicle: Klucel (hydroxypropylcellulose) (HPC)
[11] = dose: 200.0 mg/kg/injection, schedule: Q01DX009 (ip), vehicle: Klucel (hydroxypropylcellulose) (HPC)

Measured: T/C

O=C1c2cccnc2C(=O)C2CC3=C(CCCC3)CC12 (stereo unspecified)
inactive: dose: 50.0 mg/kg/injection, schedule: Q01DX005 (ip), vehicle: saline with Tween-80 100 % of control | dose: 100.0 mg/kg/injection, schedule: Q01DX005 (ip), vehicle: saline with Tween-80 100 % of control | dose: 200.0 mg/kg/injection, schedule: Q01DX005 (ip), vehicle: saline with Tween-80 100 % of control

C=C1C(=O)OC2CCC3OC(C)(C)OC3C12 (stereo unspecified)
inactive: dose: 12.5 mg/kg/injection, schedule: Q01DX009 (ip), vehicle: DMSO 95 % of control | dose: 25.0 mg/kg/injection, schedule: Q01DX009 (ip), vehicle: DMSO 122 % of control | dose: 50.0 mg/kg/injection, schedule: Q01DX009 (ip), vehicle: DMSO 101 % of control | dose: 100.0 mg/kg/injection, schedule: Q01DX009 (ip), vehicle: DMSO 110 % of control | dose: 200.0 mg/kg/injection, schedule: Q01DX009 (ip), vehicle: DMSO 113 % of control

Cn1c(N)c(N=Nc2cccnc2)c(=O)n(C)c1=O
inactive: dose: 100.0 mg/kg/injection, schedule: Q01DX001 (ip), vehicle: saline with Tween-80 95 % of control | dose: 200.0 mg/kg/injection, schedule: Q01DX001 (ip), vehicle: saline with Tween-80 98 % of control | dose: 400.0 mg/kg/injection, schedule: Q01DX001 (ip), vehicle: saline with Tween-80 95 % of control

CCCC1CC[N-]CC1.CCCC1CC[N-]CC1.[Cl][Pt+2][Cl]
inactive: dose: 11.0 mg/kg/injection, schedule: Q01DX009 (ip), vehicle: saline with Tween-80 100 % of control | dose: 16.5 mg/kg/injection, schedule: Q01DX009 (ip), vehicle: saline with Tween-80 110 % of control | dose: 22.0 mg/kg/injection, schedule: Q01DX009 (ip), vehicle: saline with Tween-80 110 % of control | [1] 115 % of control | dose: 33.0 mg/kg/injection, schedule: Q01DX009 (ip), vehicle: saline with Tween-80 110 % of control | dose: 37.5 mg/kg/injection, schedule: Q01DX009 (ip), vehicle: saline with Tween-80 115 % of control | [2] 120 % of control

Cc1cc2n(n1)C(=O)CC(=O)C2
inactive: [3] 98 % of control | dose: 120.0 mg/kg/injection, schedule: Q01DX005 (ip), vehicle: saline with Tween-80 100 % of control | dose: 240.0 mg/kg/injection, schedule: Q01DX005 (ip), vehicle: saline with Tween-80 109 % of control

Cn1c(C(=O)NN)cc2cc(OCc3ccccc3)ccc21
inactive: [4] 97 % of control | [5] 100 % of control | [6] 98 % of control

CC1=C(c2ccccc2)C2(c3ccccc3)OC(c3ccc([N+](=O)[O-])cc3)=NOC2(C)C1 (stereo unspecified)
inactive: [2] 93 % of control | [7] 93 % of control | [8] 96 % of control

CCn1cnc(CC(NC(=O)C(F)(F)F)C(=O)O)c1 (stereo unspecified)
inactive: [9] 94 % of control | [10] 100 % of control | [11] 98 % of control

C=CCN(CC=C)c1cc(NN)nnc1Cl
inactive: dose: 25.0 mg/kg/injection, schedule: Q01DX009 (ip), vehicle: other 102 % of control | dose: 50.0 mg/kg/injection, schedule: Q01DX009 (ip), vehicle: other 105 % of control

O=C1NC(=S)N/C1=C\c1ccc(Cl)c(Cl)c1
inactive: [7] 95 % of control | [8] 94 % of control | dose: 400.0 mg/kg/injection, schedule: Q01DX009 (ip), vehicle: saline with Tween-80 91 % of control

CC(C=O)[Se]c1ccccc1 (stereo unspecified)
inactive: [3] 100 % of control

O=C1c2ccccc2-c2c1c1ccccc1c(=O)n2Cc1ccccc1
inactive: dose: 6.25 mg/kg/injection, schedule: Q01DX005 (ip), vehicle: saline with Tween-80 101 % of control | dose: 12.5 mg/kg/injection, schedule: Q01DX005 (ip), vehicle: saline with Tween-80 101 % of control | dose: 25.0 mg/kg/injection, schedule: Q01DX005 (ip), vehicle: saline with Tween-80 104 % of control

OC(C1CO1)C(O)C1CO1 (stereo unspecified)
active: dose: 0.5 mg/kg/injection, schedule: Q01DX009 (ip), vehicle: water 175 % of control | dose: 1.0 mg/kg/injection, schedule: Q01DX009 (ip), vehicle: saline 167 % of control and 179 % of control | dose: 1.0 mg/kg/injection, schedule: Q01DX009 (ip), vehicle: water 185 % of control | dose: 1.5 mg/kg/injection, schedule: Q01DX009 (ip), vehicle: saline 155 % of control and 196 % of control | dose: 2.0 mg/kg/injection, schedule: Q01DX009 (ip), vehicle: saline with Tween-80 159 % of control | dose: 2.0 mg/kg/injection, schedule: Q01DX009 (ip), vehicle: saline 194 % of control and 207 % of control | dose: 2.0 mg/kg/injection, schedule: Q01DX009 (ip), vehicle: water 256 % of control | dose: 3.0 mg/kg/injection, schedule: Q01DX005 (ip), vehicle: saline 170 % of control and 181 % of control | dose: 3.0 mg/kg/injection, schedule: Q01DX009 (ip), vehicle: saline 227 % of control | dose: 4.0 mg/kg/injection, schedule: Q01DX005 (ip), vehicle: saline 216 % of control and 229 % of control | dose: 4.0 mg/kg/injection, schedule: Q01DX009 (ip), vehicle: saline with Tween-80 213 % of control | dose: 4.0 mg/kg/injection, schedule: Q01DX009 (ip), vehicle: saline 291 % of control | dose: 4.5 mg/kg/injection, schedule: Q01DX005 (ip), vehicle: saline 190 % of control and 225 % of control | dose: 6.7 mg/kg/injection, schedule: Q01DX001 (ip), vehicle: saline 157 % of control and 179 % of control | dose: 6.7 mg/kg/injection, schedule: Q01DX005 (ip), vehicle: saline 266 % of control | dose: 6.7 mg/kg/injection, schedule: Q04DX003 (ip), vehicle: saline 243 % of control and 254 % of control | dose: 10.0 mg/kg/injection, schedule: Q04DX003 (ip), vehicle: saline 281 % of control and 298 % of control
inactive: dose: 0.5 mg/kg/injection, schedule: Q01DX005 (ip), vehicle: saline 113 % of control and 124 % of control | dose: 1.3 mg/kg/injection, schedule: Q01DX005 (ip), vehicle: saline 121 % of control | dose: 6.0 mg/kg/injection, schedule: Q01DX009 (ip), vehicle: saline 89 % of control | dose: 8.0 mg/kg/injection, schedule: Q01DX005 (ip), vehicle: saline 89 % of control | dose: 8.0 mg/kg/injection, schedule: Q01DX009 (ip), vehicle: saline with Tween-80 100 % of control | dose: 8.0 mg/kg/injection, schedule: Q01DX009 (ip), vehicle: saline 103 % of control | dose: 12.5 mg/kg/injection, schedule: Q04DX003 (ip), vehicle: saline 108 % of control | [1] 100 % of control | dose: 25.0 mg/kg/injection, schedule: Q04DX003 (ip), vehicle: saline sonified 100 % of control | [2] 104 % of control | dose: 50.0 mg/kg/injection, schedule: Q04DX003 (ip), vehicle: saline sonified 100 % of control | [7] 109 % of control | dose: 100.0 mg/kg/injection, schedule: Q04DX003 (ip), vehicle: saline sonified 104 % of control

O=S1(=O)OC2(CCCCC2)c2ccccc21
inactive: [9] 106 % of control | [10] 108 % of control | [11] 108 % of control | dose: 400.0 mg/kg/injection, schedule: Q01DX009 (ip), vehicle: Klucel (hydroxypropylcellulose) (HPC) 109 % of control

CNC(=O)c1n[nH]c(=S)[nH]c1=O
inactive: [4] 111 % of control | dose: 50.0 mg/kg/injection, schedule: Q01DX005 (ip), vehicle: saline 100 % of control | [5] 104 % of control | dose: 100.0 mg/kg/injection, schedule: Q01DX005 (ip), vehicle: saline 101 % of control | [6] 101 % of control | dose: 200.0 mg/kg/injection, schedule: Q01DX005 (ip), vehicle: saline 101 % of control

COc1ccc2c3c([nH]c2c1[N+](=O)[O-])C(C)N(C)CC3 (stereo unspecified)
inactive: dose: 8.5 mg/kg/injection, schedule: Q01DX005 (ip), vehicle: Klucel (hydroxypropylcellulose) (HPC) 107 % of control | dose: 17.0 mg/kg/injection, schedule: Q01DX005 (ip), vehicle: Klucel (hydroxypropylcellulose) (HPC) 101 % of control

COc1ccc(C(=O)/C(C)=C(/C)N)c(OCc2ccccc2)c1OC
inactive: [4] 104 % of control | [5] 94 % of control | [6] 105 % of control

CC(/C=N/Nc1ccccc1)=N\N=c1/scc(-c2ccc(Br)cc2)n1-c1ccc(Br)cc1
inactive: dose: 100.0 mg/kg/injection, schedule: Q04DX002 (ip), vehicle: saline with Tween-80 86 % of control | dose: 200.0 mg/kg/injection, schedule: Q04DX002 (ip), vehicle: saline with Tween-80 86 % of control
